In US6436963B1 (priority 1998, dated 2002):

What was measured:
Format in all cases: in vivo
Erysiphe graminis = experiment: Powdery Mildew of Wheat (ERYSGT), protectant spray test on wheat seedlings; conditions: wheat (cultivar Monon), sprayed to run off at 100 ppm, inoculated after 24 hours
Puccinia recondita = experiment: Brown Rust (PUCCRT), protectant spray test on wheat seedlings; conditions: wheat (cultivar Monon), sprayed to run off at 100 ppm, inoculated after 24 hours
Leptosphaeria nodorum = experiment: Glume Blotch of Wheat (LEPTNO), protectant spray test on wheat seedlings; conditions: wheat (cultivar Monon), sprayed to run off at 100 ppm, inoculated after 24 hours
Phytophthora infestans = conditions: tomatoes (cultivar Rutgers), sprayed to run off at 100 ppm, inoculated after 24 hours

CNC(=O)C(=NOC)c1ccccc1COc1ncc(C(OC(=O)C(C)(C)C)c2ccccc2)cc1Cl (racemic) [Example 30]
ERYSGT control of plant disease (Erysiphe graminis): + (+ = 25-74% control of plant disease) | PUCCRT control of plant disease (Puccinia recondita): ++ (++ = 75-100% control of plant disease) | LEPTNO control of plant disease (Leptosphaeria nodorum): ++ (++ = 75-100% control of plant disease) | PHYTIN control of plant disease (Phytophthora infestans): ++ (++ = 75-100% control of plant disease)

CNC(=O)C(=NOC)c1ccccc1COc1ncc(C(C)(O)c2ccccc2)cc1Cl (racemic) [Example 26]
ERYSGT control of plant disease (Erysiphe graminis): ++ (++ = 75-100% control of plant disease) | PUCCRT control of plant disease (Puccinia recondita): ++ (++ = 75-100% control of plant disease) | LEPTNO control of plant disease (Leptosphaeria nodorum): ++ (++ = 75-100% control of plant disease) | PHYTIN control of plant disease (Phytophthora infestans): ++ (++ = 75-100% control of plant disease)

CNC(=O)C(=NOC)c1ccccc1COc1ncc(C(OC(=O)c2ccccc2)c2ccccc2)cc1Cl (racemic) [Example 29]
ERYSGT control of plant disease (Erysiphe graminis): + (+ = 25-74% control of plant disease) | PUCCRT control of plant disease (Puccinia recondita): ++ (++ = 75-100% control of plant disease) | LEPTNO control of plant disease (Leptosphaeria nodorum): ++ (++ = 75-100% control of plant disease) | PHYTIN control of plant disease (Phytophthora infestans): + (+ = 25-74% control of plant disease)

CNC(=O)C(=NOC)c1ccccc1COc1ncc(C(OC(=O)C(F)(F)F)c2ccccc2)cc1Cl (racemic) [Example 37]
ERYSGT control of plant disease (Erysiphe graminis): + (+ = 25-74% control of plant disease) | PUCCRT control of plant disease (Puccinia recondita): ++ (++ = 75-100% control of plant disease) | LEPTNO control of plant disease (Leptosphaeria nodorum): ++ (++ = 75-100% control of plant disease) | PHYTIN control of plant disease (Phytophthora infestans): ++ (++ = 75-100% control of plant disease)

CNC(=O)C(=NOC)c1ccccc1COc1ncc(C(O)(COS(=O)(=O)c2ccc(C)cc2)c2ccccc2)cc1Cl (stereo not shown) [Example 94]
ERYSGT control of plant disease (Erysiphe graminis): ++ (++ = 75-100% control of plant disease) | PUCCRT control of plant disease (Puccinia recondita): ++ (++ = 75-100% control of plant disease) | LEPTNO control of plant disease (Leptosphaeria nodorum): ++ (++ = 75-100% control of plant disease) | PHYTIN control of plant disease (Phytophthora infestans): ++ (++ = 75-100% control of plant disease)

CNC(=O)C(=NOC)c1ccccc1COc1ncc(C(C)OCc2ccc(C)cc2)cc1Cl (racemic) [Example 44]
ERYSGT control of plant disease (Erysiphe graminis): ++ (++ = 75-100% control of plant disease) | PUCCRT control of plant disease (Puccinia recondita): ++ (++ = 75-100% control of plant disease) | LEPTNO control of plant disease (Leptosphaeria nodorum): ++ (++ = 75-100% control of plant disease) | PHYTIN control of plant disease (Phytophthora infestans): ++ (++ = 75-100% control of plant disease)

CNC(=O)C(=NOC)c1ccccc1COc1ncc(C(C)OCc2ccc(Cl)cc2)cc1Cl (racemic) [Example 27]
ERYSGT control of plant disease (Erysiphe graminis): ++ (++ = 75-100% control of plant disease) | PUCCRT control of plant disease (Puccinia recondita): ++ (++ = 75-100% control of plant disease) | LEPTNO control of plant disease (Leptosphaeria nodorum): ++ (++ = 75-100% control of plant disease) | PHYTIN control of plant disease (Phytophthora infestans): − (− = 0-24% control of plant disease)

CCC(=O)OC(c1ccccc1)c1cnc(OCc2ccccc2C(=NOC)C(=O)NC)c(Cl)c1 (racemic) [Example 36]
ERYSGT control of plant disease (Erysiphe graminis): + (+ = 25-74% control of plant disease) | PUCCRT control of plant disease (Puccinia recondita): ++ (++ = 75-100% control of plant disease) | LEPTNO control of plant disease (Leptosphaeria nodorum): ++ (++ = 75-100% control of plant disease) | PHYTIN control of plant disease (Phytophthora infestans): ++ (++ = 75-100% control of plant disease)

CNC(=O)C(=NOC)c1ccccc1COc1ncc(C(O)c2ccc(C(C)(C)C)cc2)cc1Cl (racemic) [Example 10]
ERYSGT control of plant disease (Erysiphe graminis): ++ (++ = 75-100% control of plant disease) | PUCCRT control of plant disease (Puccinia recondita): ++ (++ = 75-100% control of plant disease) | LEPTNO control of plant disease (Leptosphaeria nodorum): ++ (++ = 75-100% control of plant disease) | PHYTIN control of plant disease (Phytophthora infestans): ++ (++ = 75-100% control of plant disease)

CNC(=O)C(=NOC)c1ccccc1COc1ncc(C(O)c2cccc(Cl)c2)cc1Cl (stereo not shown) [Example 73]
ERYSGT control of plant disease (Erysiphe graminis): ++ (++ = 75-100% control of plant disease) | PUCCRT control of plant disease (Puccinia recondita): ++ (++ = 75-100% control of plant disease) | LEPTNO control of plant disease (Leptosphaeria nodorum): ++ (++ = 75-100% control of plant disease) | PHYTIN control of plant disease (Phytophthora infestans): ++ (++ = 75-100% control of plant disease)

CCCCOC(C)c1cnc(OCc2ccccc2C(=NOC)C(=O)NC)c(Cl)c1 (stereo not shown) [Example 80]
ERYSGT control of plant disease (Erysiphe graminis): ++ (++ = 75-100% control of plant disease) | PUCCRT control of plant disease (Puccinia recondita): ++ (++ = 75-100% control of plant disease) | LEPTNO control of plant disease (Leptosphaeria nodorum): ++ (++ = 75-100% control of plant disease) | PHYTIN control of plant disease (Phytophthora infestans): − (− = 0-24% control of plant disease)

CNC(=O)C(=NOC)c1ccccc1COc1ncc(C(C)(OC(C)=O)c2ccccc2)cc1Cl (racemic) [Example 53]
ERYSGT control of plant disease (Erysiphe graminis): ++ (++ = 75-100% control of plant disease) | PUCCRT control of plant disease (Puccinia recondita): ++ (++ = 75-100% control of plant disease) | LEPTNO control of plant disease (Leptosphaeria nodorum): ++ (++ = 75-100% control of plant disease) | PHYTIN control of plant disease (Phytophthora infestans): ++ (++ = 75-100% control of plant disease)

CNC(=O)C(=NOC)c1ccccc1COc1ncc(C(OC(C)=O)c2cccc(Cl)c2)cc1Cl (stereo not shown) [Example 75]
ERYSGT control of plant disease (Erysiphe graminis): ++ (++ = 75-100% control of plant disease) | PUCCRT control of plant disease (Puccinia recondita): ++ (++ = 75-100% control of plant disease) | LEPTNO control of plant disease (Leptosphaeria nodorum): ++ (++ = 75-100% control of plant disease) | PHYTIN control of plant disease (Phytophthora infestans): ++ (++ = 75-100% control of plant disease)

CNC(=O)C(=NOC)c1ccccc1COc1ncc(C(OC(C)=O)c2ccc(F)cc2)cc1Cl (racemic) [Example 46]
ERYSGT control of plant disease (Erysiphe graminis): ++ (++ = 75-100% control of plant disease) | PUCCRT control of plant disease (Puccinia recondita): − (− = 0-24% control of plant disease) | LEPTNO control of plant disease (Leptosphaeria nodorum): ++ (++ = 75-100% control of plant disease) | PHYTIN control of plant disease (Phytophthora infestans): − (− = 0-24% control of plant disease)

CNC(=O)C(=NOC)c1ccccc1COc1ncc(C(OC(C)=O)c2ccccc2)cc1Cl (racemic) [Example 28]
ERYSGT control of plant disease (Erysiphe graminis): − (− = 0-24% control of plant disease) | PUCCRT control of plant disease (Puccinia recondita): ++ (++ = 75-100% control of plant disease) | LEPTNO control of plant disease (Leptosphaeria nodorum): ++ (++ = 75-100% control of plant disease) | PHYTIN control of plant disease (Phytophthora infestans): − (− = 0-24% control of plant disease)

CNC(=O)C(=NOC)c1ccccc1COc1ncc(C(OC(C)=O)c2ccc(OC)c(OC)c2)cc1Cl (stereo not shown) [Example 116]
ERYSGT control of plant disease (Erysiphe graminis): ++ (++ = 75-100% control of plant disease) | PUCCRT control of plant disease (Puccinia recondita): ++ (++ = 75-100% control of plant disease) | LEPTNO control of plant disease (Leptosphaeria nodorum): ++ (++ = 75-100% control of plant disease) | PHYTIN control of plant disease (Phytophthora infestans): + (+ = 25-74% control of plant disease)

CNC(=O)C(=NOC)c1ccccc1COc1ncc(C(O)c2ccc3c(c2)OCO3)cc1Cl (racemic) [Example 58]
ERYSGT control of plant disease (Erysiphe graminis): ++ (++ = 75-100% control of plant disease) | PUCCRT control of plant disease (Puccinia recondita): ++ (++ = 75-100% control of plant disease) | LEPTNO control of plant disease (Leptosphaeria nodorum): ++ (++ = 75-100% control of plant disease) | PHYTIN control of plant disease (Phytophthora infestans): ++ (++ = 75-100% control of plant disease)

CNC(=O)C(=NOC)c1ccccc1COc1ncc(C(O)c2ccccc2C)cc1Cl (racemic) [Example 59]
ERYSGT control of plant disease (Erysiphe graminis): ++ (++ = 75-100% control of plant disease) | PUCCRT control of plant disease (Puccinia recondita): ++ (++ = 75-100% control of plant disease) | LEPTNO control of plant disease (Leptosphaeria nodorum): ++ (++ = 75-100% control of plant disease) | PHYTIN control of plant disease (Phytophthora infestans): ++ (++ = 75-100% control of plant disease)

CNC(=O)C(=NOC)c1ccccc1COc1ncc(C(C)(OC)c2ccccc2)cc1Cl (racemic) [Example 35]
ERYSGT control of plant disease (Erysiphe graminis): ++ (++ = 75-100% control of plant disease) | PUCCRT control of plant disease (Puccinia recondita): ++ (++ = 75-100% control of plant disease) | LEPTNO control of plant disease (Leptosphaeria nodorum): ++ (++ = 75-100% control of plant disease) | PHYTIN control of plant disease (Phytophthora infestans): − (− = 0-24% control of plant disease)

CCCCCOC(C)c1cnc(OCc2ccccc2C(=NOC)C(=O)NC)c(Cl)c1 (racemic) [Example 41]
ERYSGT control of plant disease (Erysiphe graminis): ++ (++ = 75-100% control of plant disease) | PUCCRT control of plant disease (Puccinia recondita): ++ (++ = 75-100% control of plant disease) | LEPTNO control of plant disease (Leptosphaeria nodorum): ++ (++ = 75-100% control of plant disease) | PHYTIN control of plant disease (Phytophthora infestans): − (− = 0-24% control of plant disease)

CNC(=O)C(=NOC)c1ccccc1COc1ncc(C(O)c2ccc(C)cc2C)cc1Cl (racemic) [Example 6]
ERYSGT control of plant disease (Erysiphe graminis): ++ (++ = 75-100% control of plant disease) | PUCCRT control of plant disease (Puccinia recondita): ++ (++ = 75-100% control of plant disease) | LEPTNO control of plant disease (Leptosphaeria nodorum): − (− = 0-24% control of plant disease) | PHYTIN control of plant disease (Phytophthora infestans): ++ (++ = 75-100% control of plant disease)

CNC(=O)C(=NOC)c1ccccc1COc1ncc(C(O)c2ccccc2)cc1Cl (stereo not shown) [Example 72]
ERYSGT control of plant disease (Erysiphe graminis): ++ (++ = 75-100% control of plant disease) | PUCCRT control of plant disease (Puccinia recondita): ++ (++ = 75-100% control of plant disease) | LEPTNO control of plant disease (Leptosphaeria nodorum): ++ (++ = 75-100% control of plant disease) | PHYTIN control of plant disease (Phytophthora infestans): ++ (++ = 75-100% control of plant disease)
